ChEMBL document CHEMBL3580644, “Synthesis of piperlongumine analogues and discovery of nuclear factor erythroid 2-related factor 2 (Nrf2) activators as potential neuroprotective agents” (J Med Chem, 2015)
Each block holds one molecule with its values, some of them ahead of it. Active and inactive are the calls of the source. No cut-off for these calls is given here.

Key:
[1] = Cytotoxicity against rat PC12 cells assessed as reduction in cell viability at 100 uM incubated for 24 hrs by MTT assay; format: cell-based; conditions: pc-12, 24 h
[2] = Cytotoxicity against rat PC12 cells assessed as reduction in cell viability at 20 uM incubated for 24 hrs by MTT assay; format: cell-based; conditions: pc-12, 24 h
PC-12 [3] = assay: Cytoprotection activity against H2O2-induced cytotoxicity in rat PC12 cells assessed as cell viability at 20 uM pre-incubated for 24 hrs before H2O2 exposure for 12 hrs by MTT assay; format: functional, cell-based
[4] = Cytotoxicity against human L02 cells assessed as reduction in cell viability at 100 uM incubated for 24 hrs by MTT assay; format: cell-based; conditions: l02, 24 h
PC-12 [5] = assay: Cytoprotection activity against 6-OHDA-induced cytotoxicity in rat PC12 cells assessed as cell viability at 20 uM pre-incubated for 24 hrs before 6-OHDA exposure for 12 hrs by MTT assay; format: functional, cell-based
[6] = Cytotoxicity against human L02 cells assessed as reduction in cell viability at 20 uM to 100 uM incubated for 24 hrs by MTT assay; format: cell-based; conditions: l02, 24 h
[7] = Cytotoxicity against rat PC12 cells assessed as reduction in cell viability at 20 uM to 100 uM incubated for 24 hrs by MTT assay; format: cell-based; conditions: pc-12, 24 h
[8] = Antioxidant activity assessed as DPPH radical scavenging activity at 20 uM incubated for 30 mins by spectrophotometry; format: physicochemical; conditions: 0.5 h
[9] = Antioxidant activity assessed as ABTS radical scavenging activity at 20 uM incubated for 30 mins by spectrophotometry; format: physicochemical; conditions: 0.5 h

Structure (SMILES): O=C(/C=C/c1ccc(Br)cc1)N1CCCCC1=O
- Activity [1]: Toxic
- Activity [2]: Non-toxic
- Activity (PC-12 [3]): Active
- Activity [4]: Toxic
- Activity (PC-12 [5]): Active

Structure (SMILES): COc1cc(/C=C/C(=O)N2CCCCCC2=O)cc(OC)c1OC
- Activity [6]: Non-toxic
- Activity [2]: Non-toxic
- Activity [7]: Non-toxic
- Activity (PC-12 [3]): Active
- Activity (PC-12 [5]): Active

Structure (SMILES): COc1cc(/C=C/C(=O)N2CCC=CC2=O)cc(OC)c1OC [PIPLARTINE]
- Activity [6]: Toxic
- Activity [2]: Toxic
- Activity [7]: Toxic

Structure (SMILES): COc1ccc(/C=C/C(=O)N2CCCC2=O)cc1OC
- Activity [6]: Non-toxic
- Activity [2]: Non-toxic
- Activity [7]: Non-toxic
- Activity (PC-12 [3]): Active
- Activity (PC-12 [5]): Active

Structure (SMILES): COc1cc(CCC(=O)N2CCCCC2=O)cc(OC)c1OC [TETRAHYDROPIPLARTINE]
- Activity [6]: Non-toxic
- Activity [2]: Non-toxic
- Activity [7]: Non-toxic
- Activity (PC-12 [3]): inactive
- Activity (PC-12 [5]): inactive

Structure (SMILES): O=C(/C=C/c1ccc(Br)cc1)N1CCCC1=O
- Activity [1]: Toxic
- Activity [2]: Non-toxic
- Activity (PC-12 [3]): Active
- Activity [4]: Toxic
- Activity (PC-12 [5]): Active

Structure (SMILES): O=C(/C=C/c1ccccc1)N1CCCCC1=O
- Activity [1]: Toxic
- Activity [2]: Non-toxic
- Activity (PC-12 [3]): Active
- Activity [4]: Toxic
- Activity (PC-12 [5]): Active

Structure (SMILES): COc1cc(/C=C/C(=O)N2CCCC2=O)cc(OC)c1OC
- Activity [6]: Non-toxic
- Activity [2]: Non-toxic
- Activity [7]: Non-toxic
- Activity (PC-12 [3]): Active
- Activity (PC-12 [5]): Active

Structure (SMILES): O=C(/C=C/c1ccc(C(F)(F)F)cc1)N1CCCCC1=O
- Activity [1]: Toxic
- Activity [2]: Non-toxic
- Activity (PC-12 [3]): Active
- Activity [4]: Toxic
- Activity (PC-12 [5]): Active

Structure (SMILES): O=C(/C=C/c1ccccc1)N1CCCC1=O
- Activity [1]: Toxic
- Activity [2]: Non-toxic
- Activity (PC-12 [3]): Active
- Activity [4]: Toxic
- Activity (PC-12 [5]): Active

Structure (SMILES): O=C(/C=C/c1ccc(C(F)(F)F)cc1)N1CCCC1=O
- Activity [1]: Toxic
- Activity [2]: Non-toxic
- Activity (PC-12 [3]): Active
- Activity [4]: Toxic
- Activity (PC-12 [5]): Active

Structure (SMILES): COc1ccc(/C=C/C(=O)N2CCCCC2=O)cc1
- Activity [6]: Non-toxic
- Activity [2]: Non-toxic
- Activity [7]: Non-toxic
- Activity (PC-12 [3]): Active
- Activity (PC-12 [5]): Active

Structure (SMILES): O=C(/C=C/c1ccc([N+](=O)[O-])cc1)N1CCCCCC1=O
- Activity [1]: Toxic
- Activity [2]: Non-toxic
- Activity (PC-12 [3]): Active
- Activity [4]: Toxic
- Activity (PC-12 [5]): Active

- Activity [8]: Active
- Activity [9]: Active
Structure (SMILES): O=C(/C=C/c1ccc(O)cc1)N1CCCC1=O
- Activity [6]: Non-toxic
- Activity [2]: Non-toxic
- Activity [7]: Non-toxic
- Activity (PC-12 [3]): Active
- Activity (PC-12 [5]): Active

Structure (SMILES): O=C(/C=C/c1ccc(C(F)(F)F)cc1)N1CCCCCC1=O
- Activity [1]: Toxic
- Activity [2]: Non-toxic
- Activity (PC-12 [3]): Active
- Activity [4]: Toxic
- Activity (PC-12 [5]): Active

Structure (SMILES): O=C(/C=C/c1ccccc1)N1CCCCCC1=O
- Activity [1]: Toxic
- Activity [2]: Non-toxic
- Activity (PC-12 [3]): Active
- Activity [4]: Toxic
- Activity (PC-12 [5]): Active

Structure (SMILES): O=C(/C=C/c1ccc([N+](=O)[O-])cc1)N1CCCCC1=O
- Activity [1]: Toxic
- Activity [2]: Non-toxic
- Activity (PC-12 [3]): Active
- Activity [4]: Toxic
- Activity (PC-12 [5]): Active
